Source: ChEMBL document CHEMBL5241069, “A key review on oxadiazole analogs as potential methicillin-resistant Staphylococcus aureus (MRSA) activity: Structure-activity relationship studies” (Eur J Med Chem, 2021)
Converted amounts (≈) assume the structure as drawn.

Assays:
Type in all cases: functional
Staphylococcus aureus [1] = experiment: Antibacterial activity against methicillin resistant Staphylococcus aureus 747 assessed as inhibition of bacterial growth
Staphylococcus aureus [2] = experiment: Antibacterial activity against methicillin resistant Staphylococcus aureus 128 assessed as inhibition of bacterial growth
Staphylococcus aureus [3] = experiment: Antibacterial activity against methicillin resistant Staphylococcus aureus 42 assessed as inhibition of bacterial growth
Staphylococcus aureus [4] = experiment: Antibacterial activity against methicillin resistant Staphylococcus aureus 181 assessed as inhibition of bacterial growth
Staphylococcus aureus [5] = experiment: Antibacterial activity against methicillin resistant Staphylococcus aureus assessed as inhibition zone by disc diffusion method
Staphylococcus aureus [6] = experiment: Antibacterial activity against methicillin resistant Staphylococcus aureus assessed as inhibition of bacterial growth by broth dilution technique
Staphylococcus aureus [7] = experiment: Antibiofilm activity against methicillin resistant Staphylococcus aureus ATCC 43866 assessed as inhibition of biofilm formation incubated for 18 to 24 hrs by tissue culture plate method; settings: time 18-24 hrs

Compound | MIC (Staphylococcus aureus [1]) [µg/mL] | MIC (Staphylococcus aureus [2]) [µg/mL] | MIC (Staphylococcus aureus [3]) [µg/mL] | MIC (Staphylococcus aureus [4]) [µg/mL] | inhibition zone (IZ) (Staphylococcus aureus [5]) [mm] | MIC (Staphylococcus aureus [6]) [µg/mL] | MIC (Staphylococcus aureus [7]) [µg/mL]
CO/N=C(\C(=O)N[C@@H]1C(=O)N2C(C(=O)[O-])=C(C[N+]3(C)CCCC3)CS[C@H]12)c1csc(N)n1 | 26.9 (≈ 56 µM) | 20 (≈ 41.6 µM) | 36.5 (≈ 76 µM) | 15.2 (≈ 31.6 µM) | – | – | –
CCCCCCCCCCCCCCc1nnc(-c2ccco2)o1 | – | – | – | – | 15.5 | 12.5 (≈ 37.6 µM) | –
Cn1c(-c2nnc(-c3ccccc3)o2)cc(Br)c1Br | – | – | – | – | – | – | 6.25 (≈ 16.3 µM)
O=c1c(Br)cnc2onc(-c3ccc(Br)cc3)n12 | ≥ 125 | 120 (≈ 325 µM) | 114 (≈ 306 µM) | ≥ 125 | – | – | –
O=c1c(Br)cnc2onc(-c3ccccc3)n12 | ≥ 125 | ≥ 125 | 123 (≈ 422 µM) | ≥ 125 | – | – | –
O=c1c(Br)cnc2onc(-c3cccc(F)c3F)n12 | 42.1 (≈ 128 µM) | 37.8 (≈ 115 µM) | 20.8 (≈ 63.4 µM) | 42.1 (≈ 128 µM) | – | – | –
O=c1c(F)cnc2onc(-c3ccccc3Cl)n12 | ≥ 125 | ≥ 125 | ≥ 125 | ≥ 125 | – | – | –
O=c1c(F)cnc2onc(-c3cccc(Cl)c3Cl)n12 | ≥ 125 | ≥ 125 | 101 (≈ 336 µM) | ≥ 125 | – | – | –
Cn1c(-c2nnc(-c3ccccc3O)o2)cc(Br)c1Br | – | – | – | – | – | – | 6.25 (≈ 15.7 µM)
C=Cc1ccc(Oc2nnc(-c3cc(Br)c(Br)n3C)o2)c(OC)c1 | – | – | – | – | – | – | 25 (≈ 54.9 µM)
Cn1c(-c2nnc(-c3ccc([N+](=O)[O-])cc3)o2)cc(Br)c1Br | – | – | – | – | – | – | 3.12 (≈ 7.3 µM)
O=c1c(Br)cnc2onc(-c3ccc(Cl)cc3)n12 | 59.4 (≈ 182 µM) | 96.3 (≈ 295 µM) | 96.4 (≈ 295 µM) | 53.6 (≈ 164 µM) | – | – | –
O=c1c(F)cnc2onc(-c3cccc(F)c3F)n12 | ≥ 125 | ≥ 125 | 115 (≈ 429 µM) | ≥ 125 | – | – | –
Cn1c(-c2nnc(-c3ccc(Cl)cc3)o2)cc(Br)c1Br | – | – | – | – | – | – | 1.56 (≈ 3.74 µM)
Cn1c(-c2nnc(-c3cc(Br)c(Br)[nH]3)o2)cc(Br)c1Br | – | – | – | – | – | – | 1.56 (≈ 2.94 µM)
O=c1c(F)cnc2onc(-c3c(F)cccc3F)n12 | ≥ 125 | ≥ 125 | 122 (≈ 458 µM) | 120 (≈ 447 µM) | – | – | –
CCCCCCCCCCCCCCC(Br)c1nnc(-c2ccco2)o1 (stereo not drawn) | – | – | – | – | 21.6 | 12.5 (≈ 29.4 µM) | –

Compound | MIC (Staphylococcus aureus [1]) [µg/mL] | MIC (Staphylococcus aureus [2]) [µg/mL] | MIC (Staphylococcus aureus [3]) [µg/mL] | MIC (Staphylococcus aureus [4]) [µg/mL] | inhibition zone (IZ) (Staphylococcus aureus [5]) [mm] | MIC (Staphylococcus aureus [6]) [µg/mL] | MIC (Staphylococcus aureus [7]) [µg/mL]
CCCCCCCCCCCCCCC(Br)c1nnc(-c2ccccc2Cl)o1 (stereo not drawn) | – | – | – | – | 20.5 | 12.5 (≈ 26.6 µM) | –
O=c1c(Br)cnc2onc(-c3cccc(Cl)c3Cl)n12 | ≥ 125 | 90.3 (≈ 250 µM) | 86.2 (≈ 239 µM) | ≥ 125 | – | – | –
C=CCCCCCCCc1nnc(-c2ccccc2Cl)o1 | – | – | – | – | 14.4 | 12.5 (≈ 41 µM) | –
Cc1ccc(-c2noc3ncc(Br)c(=O)n23)cc1 | ≥ 125 | ≥ 125 | 119 (≈ 388 µM) | ≥ 125 | – | – | –
Cn1c(-c2nnc(-c3cc(F)ccc3Cl)o2)cc(Br)c1Br | – | – | – | – | – | – | 3.12 (≈ 7.18 µM)
Cn1c(-c2nnc(-c3ccncc3)o2)cc(Br)c1Br | – | – | – | – | – | – | 3.12 (≈ 8.14 µM)
Cn1c(-c2nnc(/C=C/c3ccccc3)o2)cc(Br)c1Br | – | – | – | – | – | – | 6.25 (≈ 15.3 µM)
CCCCCCCC/C=C/CCCCCCc1nnc(-c2ccccc2Cl)o1 | – | – | – | – | 16.6 | 12.5 (≈ 31 µM) | –
O=c1c(Br)cnc2onc(-c3c(F)cccc3F)n12 | 40.2 (≈ 123 µM) | 32.4 (≈ 98.8 µM) | 15.8 (≈ 48.2 µM) | 40.2 (≈ 123 µM) | – | – | –
O=c1c(Br)cnc2onc(-c3ccccc3Cl)n12 | 79.4 (≈ 243 µM) | 84.4 (≈ 258 µM) | 76.4 (≈ 234 µM) | 79.4 (≈ 243 µM) | – | – | –
COc1ccc(-c2nnc(-c3cc(Br)c(Br)n3C)o2)cc1 | – | – | – | – | – | – | 1.56 (≈ 3.78 µM)
CCCCC/C=C/CCC(O)CCCCCCc1nnc(-c2ccccc2Cl)o1 (stereo not drawn) | – | – | – | – | 19.7 | 12.5 (≈ 29.8 µM) | –
Cn1c(-c2nnc(-c3ccc(N)cc3)o2)cc(Br)c1Br | – | – | – | – | – | – | 1.56 (≈ 3.92 µM)
O=c1c(F)cnc2onc(-c3ccc(Cl)cc3Cl)n12 | ≥ 125 | ≥ 125 | 116 (≈ 388 µM) | ≥ 125 | – | – | –
Cn1c(-c2nnc(Cc3ccccc3)o2)cc(Br)c1Br | – | – | – | – | – | – | 6.25 (≈ 15.7 µM)
O=c1c(F)cnc2onc(-c3ccc(Cl)cc3)n12 | ≥ 125 | ≥ 125 | 111 (≈ 416 µM) | ≥ 125 | – | – | –
O=c1c(F)cnc2onc(-c3ccc(F)cc3F)n12 | ≥ 125 | 87.4 (≈ 327 µM) | 96.4 (≈ 361 µM) | 100 (≈ 375 µM) | – | – | –
